Earlier results in patent publication US10918618B2, “Methods of reducing microbial contamination” (3M INNOVATIVE PROPERTIES COMPANY, priority 2005, dated 2021).

Row | solubility limit | Compound
1 | 20 g/100 mL | N=C(NCCCCCCNC(=N)NC(=N)Nc1ccc(Cl)cc1)NC(=N)Nc1ccc(Cl)cc1.O=C(O)[C@H](O)[C@@H](O)[C@H](O)[C@H](O)CO.O=C(O)[C@H](O)[C@@H](O)[C@H](O)[C@H](O)CO [digluconate salt, chlorhexidine digluconate]
2 | 1.9 g/100 mL | [H]/N=C(\N/C(=N/[H])NCCCCCCNC(=N)NC(=N)Nc1ccc(Cl)cc1)Nc1ccc(Cl)cc1 [diacetate, chlorhexidine]
